From ChEMBL document CHEMBL5257057
Active and inactive are the calls of the source. No cut-off for these calls is given here.

Assays:
[1] = biological target: Tyrosine-protein kinase BTK (Homo sapiens) (UniProt Q06187); experiment: Inhibition of BTK (unknown origin) at 1 uM relative to control
[2] = biological target: Tyrosine-protein kinase Blk (Homo sapiens) (UniProt P51451); experiment: Inhibition of BLK (unknown origin) at 1 uM relative to control
[3] = biological target: Protein-tyrosine kinase 6 (Homo sapiens) (UniProt Q13882); experiment: Inhibition of BRK (unknown origin) at 1 uM relative to control
[4] = biological target: Receptor tyrosine-protein kinase erbB-4 (Homo sapiens) (UniProt Q15303); experiment: Inhibition of ERBB4 (unknown origin) at 1 uM relative to control
[5] = biological target: Tyrosine-protein kinase BTK (Homo sapiens) (UniProt Q06187); experiment: Inhibition of BTK phosphorylation in human JeKo-1 cells at 0.01 to 10 uM incubated for 2 hrs by Western blot analysis; assay type: cell-based; conditions: dose 0.01-10 µM
[6] = biological target: Tyrosine-protein kinase Fgr (Homo sapiens) (UniProt P09769); experiment: Inhibition of FGR (unknown origin) at 1 uM relative to control
[7] = biological target: Tyrosine-protein kinase Lck (Homo sapiens) (UniProt P06239); experiment: Inhibition of LCK (unknown origin) at 1 uM relative to control
[8] = biological target: T1, Tyrosine-protein kinase TXK (Homo sapiens) (UniProt P42681); experiment: Inhibition of TXK (unknown origin) at 1 uM relative to control
T1 sequence (whole entry): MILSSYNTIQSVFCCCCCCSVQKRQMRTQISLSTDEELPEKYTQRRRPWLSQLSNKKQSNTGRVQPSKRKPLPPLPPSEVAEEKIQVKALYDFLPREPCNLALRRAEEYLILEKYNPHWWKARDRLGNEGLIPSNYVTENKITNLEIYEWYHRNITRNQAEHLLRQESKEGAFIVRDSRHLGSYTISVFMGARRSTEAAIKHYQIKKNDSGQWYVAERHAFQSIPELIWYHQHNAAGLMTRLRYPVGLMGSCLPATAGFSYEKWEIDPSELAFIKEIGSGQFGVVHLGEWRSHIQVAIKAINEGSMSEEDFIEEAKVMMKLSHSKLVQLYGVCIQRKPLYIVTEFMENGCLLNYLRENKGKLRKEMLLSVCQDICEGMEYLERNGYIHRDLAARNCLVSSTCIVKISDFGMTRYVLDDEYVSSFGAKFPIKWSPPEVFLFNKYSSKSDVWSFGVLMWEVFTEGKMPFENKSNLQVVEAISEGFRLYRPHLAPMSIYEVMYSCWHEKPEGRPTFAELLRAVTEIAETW

[9] = biological target: Tyrosine-protein kinase Tec (Homo sapiens) (UniProt P42680); experiment: Inhibition of TEC (unknown origin) at 1 uM relative to control
Chain of Tyrosine-protein kinase Tec (Homo sapiens) (P42680 whole entry, looked up): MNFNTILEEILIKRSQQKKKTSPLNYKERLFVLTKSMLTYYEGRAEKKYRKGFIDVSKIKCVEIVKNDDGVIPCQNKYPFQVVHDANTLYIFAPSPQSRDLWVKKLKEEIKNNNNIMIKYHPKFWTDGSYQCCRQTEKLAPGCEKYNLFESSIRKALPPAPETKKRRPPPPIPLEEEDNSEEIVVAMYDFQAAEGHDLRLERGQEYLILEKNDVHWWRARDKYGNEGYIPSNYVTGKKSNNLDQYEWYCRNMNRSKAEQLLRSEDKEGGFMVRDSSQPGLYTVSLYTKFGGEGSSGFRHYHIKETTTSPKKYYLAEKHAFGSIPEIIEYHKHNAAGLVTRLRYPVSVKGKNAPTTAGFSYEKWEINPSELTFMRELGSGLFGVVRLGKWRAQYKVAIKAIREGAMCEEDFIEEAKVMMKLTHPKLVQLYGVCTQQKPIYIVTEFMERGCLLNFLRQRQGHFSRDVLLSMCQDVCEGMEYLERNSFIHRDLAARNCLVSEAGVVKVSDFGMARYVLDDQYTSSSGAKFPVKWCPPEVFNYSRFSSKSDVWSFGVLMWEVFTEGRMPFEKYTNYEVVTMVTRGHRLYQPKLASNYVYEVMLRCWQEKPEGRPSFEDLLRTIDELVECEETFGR

Chain of Tyrosine-protein kinase BTK (Homo sapiens) (Q06187 whole entry): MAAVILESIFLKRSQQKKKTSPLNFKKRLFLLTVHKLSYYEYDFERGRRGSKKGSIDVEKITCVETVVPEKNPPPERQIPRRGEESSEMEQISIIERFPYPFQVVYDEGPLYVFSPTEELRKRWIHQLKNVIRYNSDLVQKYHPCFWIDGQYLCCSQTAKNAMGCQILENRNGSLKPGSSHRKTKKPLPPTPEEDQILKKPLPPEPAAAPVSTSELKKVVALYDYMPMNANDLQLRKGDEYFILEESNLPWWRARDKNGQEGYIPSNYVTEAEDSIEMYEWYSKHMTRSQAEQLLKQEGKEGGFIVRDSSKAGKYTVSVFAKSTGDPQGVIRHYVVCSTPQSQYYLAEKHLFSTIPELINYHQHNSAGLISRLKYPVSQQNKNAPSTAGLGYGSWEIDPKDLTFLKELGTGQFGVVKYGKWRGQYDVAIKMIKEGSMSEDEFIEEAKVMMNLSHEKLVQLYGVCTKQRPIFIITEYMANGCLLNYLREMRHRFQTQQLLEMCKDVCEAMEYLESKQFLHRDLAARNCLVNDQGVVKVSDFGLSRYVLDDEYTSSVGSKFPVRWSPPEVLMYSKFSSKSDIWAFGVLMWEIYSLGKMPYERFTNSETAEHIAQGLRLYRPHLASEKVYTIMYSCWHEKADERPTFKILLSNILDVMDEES
Chain of Protein-tyrosine kinase 6 (Homo sapiens) (Q13882 whole entry, looked up): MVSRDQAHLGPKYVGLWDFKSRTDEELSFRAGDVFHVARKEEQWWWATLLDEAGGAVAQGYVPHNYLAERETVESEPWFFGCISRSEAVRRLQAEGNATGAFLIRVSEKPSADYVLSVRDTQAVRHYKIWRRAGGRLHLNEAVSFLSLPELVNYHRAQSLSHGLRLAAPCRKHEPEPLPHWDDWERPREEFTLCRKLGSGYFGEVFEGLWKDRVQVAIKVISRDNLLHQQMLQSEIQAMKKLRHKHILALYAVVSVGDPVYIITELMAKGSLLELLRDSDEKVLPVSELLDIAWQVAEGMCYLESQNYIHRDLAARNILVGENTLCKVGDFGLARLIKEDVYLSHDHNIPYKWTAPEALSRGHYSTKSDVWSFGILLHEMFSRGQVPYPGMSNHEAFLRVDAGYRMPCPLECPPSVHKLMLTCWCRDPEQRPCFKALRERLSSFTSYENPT
Chain of Tyrosine-protein kinase Fgr (Homo sapiens) (P09769 2-529 limits assumed): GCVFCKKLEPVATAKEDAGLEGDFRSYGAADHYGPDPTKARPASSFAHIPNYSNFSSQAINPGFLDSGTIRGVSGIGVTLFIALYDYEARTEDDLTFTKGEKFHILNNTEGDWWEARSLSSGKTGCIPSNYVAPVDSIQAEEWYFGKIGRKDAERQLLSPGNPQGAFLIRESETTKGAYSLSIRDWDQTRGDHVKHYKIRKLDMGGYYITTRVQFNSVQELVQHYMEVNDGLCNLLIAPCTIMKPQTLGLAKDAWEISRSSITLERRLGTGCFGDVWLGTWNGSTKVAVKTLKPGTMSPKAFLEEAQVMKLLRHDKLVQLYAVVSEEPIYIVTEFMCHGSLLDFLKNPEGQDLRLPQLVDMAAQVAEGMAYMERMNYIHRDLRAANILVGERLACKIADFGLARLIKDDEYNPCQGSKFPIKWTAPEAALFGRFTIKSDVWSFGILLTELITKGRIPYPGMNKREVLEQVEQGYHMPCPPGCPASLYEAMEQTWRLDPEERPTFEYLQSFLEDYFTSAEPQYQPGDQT
Chain of Receptor tyrosine-protein kinase erbB-4 (Homo sapiens) (Q15303 whole entry): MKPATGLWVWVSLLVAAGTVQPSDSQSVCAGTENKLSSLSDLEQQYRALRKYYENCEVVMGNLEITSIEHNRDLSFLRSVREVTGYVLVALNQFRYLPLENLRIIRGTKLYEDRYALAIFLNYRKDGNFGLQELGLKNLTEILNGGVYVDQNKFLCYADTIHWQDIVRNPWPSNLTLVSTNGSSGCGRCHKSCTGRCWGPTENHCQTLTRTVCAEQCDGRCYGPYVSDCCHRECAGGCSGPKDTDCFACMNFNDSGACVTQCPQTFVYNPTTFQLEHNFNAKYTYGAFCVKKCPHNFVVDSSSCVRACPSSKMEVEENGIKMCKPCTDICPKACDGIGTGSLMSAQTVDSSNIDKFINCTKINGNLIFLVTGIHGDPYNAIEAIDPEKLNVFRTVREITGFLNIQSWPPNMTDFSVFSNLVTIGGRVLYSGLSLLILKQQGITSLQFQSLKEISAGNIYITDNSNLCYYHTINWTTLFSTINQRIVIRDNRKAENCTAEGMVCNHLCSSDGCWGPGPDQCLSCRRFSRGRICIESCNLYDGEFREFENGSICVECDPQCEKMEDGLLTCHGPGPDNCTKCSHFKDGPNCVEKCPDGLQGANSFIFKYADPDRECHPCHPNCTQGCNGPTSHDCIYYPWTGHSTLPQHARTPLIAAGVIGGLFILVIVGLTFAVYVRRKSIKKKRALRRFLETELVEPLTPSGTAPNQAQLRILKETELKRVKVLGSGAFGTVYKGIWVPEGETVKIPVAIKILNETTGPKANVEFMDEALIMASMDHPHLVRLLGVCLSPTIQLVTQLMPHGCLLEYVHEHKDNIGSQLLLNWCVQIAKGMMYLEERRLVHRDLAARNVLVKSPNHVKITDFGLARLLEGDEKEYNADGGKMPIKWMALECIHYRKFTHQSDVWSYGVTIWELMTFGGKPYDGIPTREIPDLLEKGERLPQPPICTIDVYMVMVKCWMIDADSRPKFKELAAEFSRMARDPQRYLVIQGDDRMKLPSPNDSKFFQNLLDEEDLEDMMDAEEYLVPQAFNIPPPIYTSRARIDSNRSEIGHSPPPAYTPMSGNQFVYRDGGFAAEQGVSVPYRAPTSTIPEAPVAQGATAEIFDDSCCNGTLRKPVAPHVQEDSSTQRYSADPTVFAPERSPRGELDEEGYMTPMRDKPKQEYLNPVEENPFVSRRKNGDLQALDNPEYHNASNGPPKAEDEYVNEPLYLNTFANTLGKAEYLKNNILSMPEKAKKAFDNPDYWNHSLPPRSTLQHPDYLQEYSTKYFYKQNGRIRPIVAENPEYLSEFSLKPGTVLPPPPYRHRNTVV
Chain of Tyrosine-protein kinase Lck (Homo sapiens) (P06239 2-509 limits assumed): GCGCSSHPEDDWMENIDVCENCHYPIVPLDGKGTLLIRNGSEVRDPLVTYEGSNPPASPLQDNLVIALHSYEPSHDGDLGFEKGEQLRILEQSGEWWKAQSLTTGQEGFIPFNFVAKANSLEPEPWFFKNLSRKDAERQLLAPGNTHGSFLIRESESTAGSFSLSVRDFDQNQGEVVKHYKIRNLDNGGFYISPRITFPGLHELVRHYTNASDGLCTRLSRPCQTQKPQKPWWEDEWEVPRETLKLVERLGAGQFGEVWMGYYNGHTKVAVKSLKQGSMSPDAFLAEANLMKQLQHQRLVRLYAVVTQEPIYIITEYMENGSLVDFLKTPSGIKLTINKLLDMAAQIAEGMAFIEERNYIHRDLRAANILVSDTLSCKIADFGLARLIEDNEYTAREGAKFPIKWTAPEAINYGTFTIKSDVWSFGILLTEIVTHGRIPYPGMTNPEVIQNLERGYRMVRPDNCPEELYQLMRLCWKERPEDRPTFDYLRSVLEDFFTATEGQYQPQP
Chain of Tyrosine-protein kinase Blk (Homo sapiens) (P51451 2-505 limits assumed): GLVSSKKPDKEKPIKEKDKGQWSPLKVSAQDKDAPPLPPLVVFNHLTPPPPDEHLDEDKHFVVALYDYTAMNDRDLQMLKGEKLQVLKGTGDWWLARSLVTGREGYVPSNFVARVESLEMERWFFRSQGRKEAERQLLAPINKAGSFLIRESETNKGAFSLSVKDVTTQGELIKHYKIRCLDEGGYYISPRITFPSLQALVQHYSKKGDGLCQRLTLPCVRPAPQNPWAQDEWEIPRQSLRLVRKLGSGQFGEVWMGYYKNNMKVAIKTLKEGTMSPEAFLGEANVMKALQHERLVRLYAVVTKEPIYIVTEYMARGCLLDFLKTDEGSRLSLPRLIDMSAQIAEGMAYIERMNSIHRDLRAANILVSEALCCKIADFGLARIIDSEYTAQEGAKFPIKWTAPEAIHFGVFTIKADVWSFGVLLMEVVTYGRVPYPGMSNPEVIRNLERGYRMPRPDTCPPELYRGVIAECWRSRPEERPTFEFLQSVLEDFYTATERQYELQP

| inhibition [1] [%] | inhibition [2] [%] | inhibition [3] [%] | inhibition [4] [%] | inhibition [5] | inhibition [6] [%] | inhibition [7] [%] | inhibition [8] [%] | inhibition [9] [%] | SMILES |
| --- | --- | --- | --- | --- | --- | --- | --- | --- | --- |
| 10 | 10 | 50 | 10 | Active | 50 | 50 | 10 | 10 | C=CC(=O)N1CCC[C@H](n2nc(-c3c(C)cc(Oc4ccccc4)cc3C)c3c(N)ncnc32)C1 |
|  |  |  |  | Active |  |  |  |  | C=CC(=O)N1CCC[C@H](n2nc(-c3ccc(Oc4ccccc4)cc3C)c3c(N)ncnc32)C1 |
